Measured values: patent US7183267B2, “β-lactamase inhibitors and methods of use thereof” (priority 2003, dated 2007)
Converted amounts (≈) assume the structure as drawn.

Key:
[1] = target: β-lactamase mutant R244S (Escherichia coli, UniProt P62593, R241S); type: biochemical; conditions: number higher than 1 reflects a loss of potency against mutant
Method: (§1) The inhibition of TEM-1 β-lactamase was determined spectrophotometrically. B-lactamase activity was followed by measuring the hydrolysis of nitrocefin, [3-(2,4-dinitrostyryl)-(6R, 7R)-7-(2-thienylacetamido)-ceph-3-em-4-carboxylic acid, E-isomer], (Calbiochem, San Diego, Calif., USA) at 486 nm. Inhibition assays were performed at 25° C. in 50 mM sodium phosphate, 5% DMSO, pH 7.0. […] Inhibitor was added to the enzyme and incubated for ten minutes before the addition of substrate. Inhibition constants (Ki) for the inhibitors are obtained at the desired temperature and solvent conditions by measuring the rate of substrate hydrolysis at increasing amounts of inhibitors.
(§2) Three of the most important mutations are M69I, R244S and E104K.

[2] = target: β-lactamase mutant M69I (Escherichia coli, UniProt P62593, M67I); type: biochemical; conditions: number higher than 1 reflects a loss of potency against mutant
Method: as §1, §2

[3] = target: β-lactamase mutant E104K (Escherichia coli, UniProt P62593, E102K); type: biochemical; conditions: number higher than 1 reflects a loss of potency against mutant
Method: as §1, §2

[4] = target: T1, TEM-1 β-lactamase (Escherichia coli, UniProt P62593); experiment: TEM-1 β-lactamase inhibition assay (nitrocefin hydrolysis, 486 nm); type: biochemical
Method: as §1
The competitive inhibition of β-lactamase was determined spectrophotometrically using a Varian (Walnut Creek, Calif.) Cary 100 UV-Visible spectrophotometer. β-lactamase activity was followed by measuring the hydrolysis of nitrocefin, [3-(2,4-dinitrostyryl)-(6R, 7R)-7-(2-thienylacetamido)-ceph-3-em-4-carboxylic acid, E-isomer], (Calbiochem, San Diego, Calif.) at 486 nm. Inhibition assays were performed at 25° C. in 50 mM sodium phosphate, 5% DMSO, pH 7.0. […] Penicillin G (Sigma, St. Louis, Mo.) was also used as a substrate to determine KM and kcat.
Inhibitor was added to protein and incubated for ten minutes before the addition of substrate. Inhibition constants were determined by measuring the loss of P-lactamase activity with increasing inhibitor concentrations and fitting the data to standard equations for competitive inhibition.
(§3) These methods can also be used to express and assay recombinant TEM-1 variant of β-lactamase.

[5] = target: β-lactamase wt (Escherichia coli, UniProt P62593); experiment: Isothermal titration calorimetry, binding enthalpy, wild type
Method: (§4) The binding of the compounds of the present invention to β-lactamase was also measured by isothermal titration calorimetry.
(§5) These experiments, in combination with the inhibition assays, indicate that the compounds identified in this disclosure bind to the wild type as well as drug resistant beta lactamases with favorable binding enthalpies. This is a very important characteristic from the point of view of further optimization since it facilitates the achievement of extremely high affinities and low susceptibilities to drug resistant mutations and naturally occurring polymorphisms.
(§6) Isothermal titration calorimetry was performed on a high-precision VP-ITC titration calorimeter (Microcal Inc., Northampton, Mass.). β-Lactamase solutions were titrated with inhibitors in 50 mM sodium phosphate, 2% DMSO, pH 7.0, with β-lactamase concentrations ranging from 15 to 25 μM and inhibitor concentrations ranging from 300 to 1000 μM. The heat evolved from each injection was obtained by integrating the calorimetric signal. Heat of binding was obtained as the difference between the heat of reaction and the heat of inhibitor dilution. Data were analyzed using Origin 7.0 (OriginLab Corporation, Northampton, Mass.).

[6] = target: β-lactamase E104K (Escherichia coli, UniProt P62593, E102K); experiment: Isothermal titration calorimetry, binding enthalpy, E104K mutant
Method: as §4, §5, §6

[7] = target: β-lactamase M69I (Escherichia coli, UniProt P62593, M67I); experiment: Isothermal titration calorimetry, binding enthalpy, M69I mutant
Method: as §4, §5, §6

[8] = target: β-lactamase R244S (Escherichia coli, UniProt P62593, R241S); experiment: Isothermal titration calorimetry, binding enthalpy, R244S mutant
Method: as §4, §5, §6

[9] = test system: methicillin resistant S. aureus from Stanford University Hospital (MRSA-SU); experiment: MIC assay, broth microdilution, MRSA-SU; type: cell-based; conditions: for MIC: Staphylococcus aureus, MRSA, 24 h
Text: (2) methicillin resistant S. aureus from Stanford University Hospital Clinical Microbiology/Virology Laboratory (MRSA-SU). […] Such Staphylococci are also resistant to all penicillins, and all cephalosporins, in addition to all β-lactamase inhibitor combinations (including ampicillin/sulbactarn, amoxicillin/clavulanic acid, piperacillin/tazobactam), imipenem, and meropenem; and
(§7) The strains were processed according to procedures recommended by ATCC, or procedures that are routinely used. Single colonies of each organism were picked for purification to generate pure working cultures. Prior to each experiment each strain was subcultured on a fresh Mueller-Hinton agar plate (MHA).
(§8) Inocula for the MIC assays were prepared by transferring a tiny portion of one colony from a MHA plate to 2 ml of Mueller-Hinton broth (MHB) such that the estimated cell density was about 10^7 colony forming unit (CFU)/ml. This cell suspension was then further diluted 10-fold (to 10^6 CFU/ml) by transferring the 2 ml cell suspension to 18 ml of MHB. Addition of 50 μl of this dilute cell suspension to 50 μl of growth medium yielded the desired cell density, namely about 5×10^4 CFU/well, or 5×10^5 CFU/ml.
(§9) The MIC value of oxacillin was determined using the broth microdilution procedure recommended by the National Committee of Clinical Laboratory Standards (NCCLS, 2000).
(§10) The MIC experiments were performed in duplicate in 96-well microtiter plates using MHB. A stock solution of 2.6 mg/0.5 ml was prepared in dimethylsulfoxide (DMSO). A total of 8 two-fold serial dilutions were made with DMSO. Initial oxacillin doses used were (μg/ml): 64, 32, 16, 8, 4, 2, 1, and 0.5. Doses were adjusted in the confirmatory experiment, if needed, in order to establish an actual MIC value.
(§11) To each well of a 96 well microtiter plate was added 47.5 μl of MHB. A volume of 2.5 μl of each dilution of oxacillin was then transferred to appropriate wells containing the medium. All wells, except the sterility control wells, were then inoculated with 50 μl of a diluted cell suspension to give a final volume of 100 μl and a final cell density of 5×10^4 CFU/well. The volume in the sterility control wells was adjusted to 100 μl with MHB. A sterile pipette tip was used to mix the contents of each well (one tip was used going from the low to the high concentration in the same column). The microtiter plates were covered with the lids and were placed in large Stratagene Big Blue plates (Cat. # 400041). Four large kimwipes moistened with tap water were placed near the edges of the Stratagene plates to prevent evaporation of the medium. The microtiter plates were incubated for at least 24 hours at 35° C. The plates were then evaluated for growth in each well. Controls included: medium sterility and negative control (medium and bacteria only).
(§12) The procedure used to determine the antimicrobial activity of the compounds of the present invention was identical to the broth microdilution procedure described above with the exception of the preparation of the stock solutions. Stock solution at concentration of 40.96 mg/0.5 ml was prepared in DMSO for each of the compounds. A total of 8 two-fold dilutions were then made in DMSO. A volume of 2.5 μl of each dilution was delivered to appropriate wells. The initial doses used were (μg/ml): 512, 256, 128, 64, 32, 16, 8, and 4.
(§13) A numerical code was used to evaluate the extent of growth as indicated below. • 0: absence of growth • 1: barely visible (faint) growth • 2: fair growth but less than the negative solvent control • 3: growth is equivalent to the negative solvent control.
(§14) The lowest dose at which no visible growth is observed was determined to be the MIC value.
(§15) MIC assays were performed with oxacillin and the four compounds. Each of the compounds was tested at the following 8 doses (μg/ml): 512, 256, 128, 64, 32, 16, 8, and 4. Oxacillin was tested at the following 8 doses (μg/ml): 64, 32, 16, 8, 4, 2, 1, and 0.5.

[10] = test system: methicillin sensitive S. aureus ATCC 25923 (MSSA); experiment: MIC assay, broth microdilution, MSSA; type: cell-based; conditions: for MIC: Staphylococcus aureus, 24 h
Method: (3) methicillin sensitive S. aureus ATCC 25923 (MSSA). This strain was obtained from ATCC and was used as a control.
as §7, §8, §9, §10, §11, §12, §13, §14, §15

[11] = test system: methicillin resistant S. aureus ATCC 33591 (MRSA-ATCC); experiment: MIC assay, broth microdilution, MRSA-ATCC; type: cell-based; conditions: for MIC: Staphylococcus aureus, 24 h
Method: (1) methicillin resistant S. aureus ATCC 33591 (MRSA-ATCC). This strain was obtained from American Type Culture Collection (ATCC), Manassas, Md.;
as §7, §8, §9, §10, §11, §12, §13, §14, §15

[12] = target: T1, TEM-1 β-lactamase; experiment: Isothermal titration calorimetry, binding to TEM-1 β-lactamase (Example 17); conditions: ITC
Method: as §6, §3
Also shown are the results obtained for β-lactamase variant TEM-1.

[13] = Ki, 25° C., 50 mM sodium phosphate, 5% DMSO, pH 7.0, enzyme 5 nM, nitrocefin 167 μM
[14] = Ki from Lineweaver-Burke Analysis, values in parenthesis, Lineweaver-Burke analysis

Row | Structure (SMILES) | melting point [°C] | Loss of potency: ratio of the inhibitory constant between mutant and wild type (Potencywt/Potencymutant), R244S [1] | Loss of potency: ratio of the inhibitory constant between mutant and wild type (Potencywt/Potencymutant), M69I [2] | Loss of potency: ratio of the inhibitory constant between mutant and wild type (Potencywt/Potencymutant), E104K [3] | Ki [4, 13] [µM] | ΔH wt [5] [cal/mol] | ΔH E104K [6] [cal/mol] | ΔH M69I [7] [cal/mol] | ΔH R244S [8] [cal/mol] | Ki [4, 14] [µM] | also measured
1 | COc1ccc(OC(=O)c2cc(B(O)O)cc([N+](=O)[O-])c2)cc1 [Compound (1d), 3-(4-Methoxyphenoxycarbonyl)-5-nitrophenylboronic acid] | 67 | 0.62 | 0.60 | 0.55 | 42 ± 7 |  |  |  |  |  | 
2 | O=C(Oc1ccccc1Cl)c1cc(B(O)O)cc([N+](=O)[O-])c1 [Compound (1j), 3-(2-Chlorophenoxycarbonyl)-5-nitrophenylboronic acid] |  | 0.37 | 0.33 | 0.15 | 28 ± 2 | -2145 | -2756 | -1693 | -6877 | 1.31 | 
3 | O=C(Oc1ccccc1[N+](=O)[O-])c1cc(B(O)O)cc([N+](=O)[O-])c1 [Compound F1204] |  |  |  |  |  |  |  |  |  |  | MIC [9]: 512 µg/mL; MIC [10]: 512 µg/mL (≈ 1540 µM); MIC [11]: 256 µg/mL (≈ 771 µM)
4 | N#Cc1ccccc1OC(=O)c1cc(B(O)O)cc([N+](=O)[O-])c1 [Compound (1g), 3-(2-Cyanophenoxycarbonyl)-5-nitrophenylboronic acid] |  | 0.26 | 0.40 | 0.32 | 37 ± 3 | -5520 | -6397 | -2460 | -8200 | 1.37 | 
5 | COC(=O)c1cc(B(O)O)cc([N+](=O)[O-])c1 [Compound F1212] |  |  |  |  |  | -4700 | -4500 | -3300 | -8900 |  | Ki ([4]; 25° C., 50 mM sodium phosphate, 5% DMSO, pH 7.0, enzyme 5 nM, nitrocefin 167 μM): 95 µM
6 | O=C(Oc1cccc([N+](=O)[O-])c1)c1cc(B(O)O)cc([N+](=O)[O-])c1 [Compound (1c), 3-(3-Nitrophenoxycarbonyl)-5-nitrophenylboronic acid] | 185 to 187 | 0.52 | 1.0 | 0.56 | 39 ± 7 |  |  |  |  |  | 
7 | O=C(Oc1c(Cl)cccc1[N+](=O)[O-])c1cc(B(O)O)cc([N+](=O)[O-])c1 [Compound (1h), 3-(2-Chloro-6-nitrophenoxycarbonyl)-5-nitrophenylboronic acid] |  | 0.86 | 1.2 | 0.77 | 9.5 ± 0.8 | -1140 | -1896 | -953 | -11931 | 0.65 | ΔG [12]: -6614 cal/mol; ΔH [12]: -1140 cal/mol; −TΔS [12]: -5474 cal/mol; Ki ([4]; Ki, TEM-1 β-lactamase): 9.5 µM
8 | O=C(Oc1ccc([N+](=O)[O-])cc1)c1cc(B(O)O)cc([N+](=O)[O-])c1 [Compound (1a), 3-(4-Nitrophenoxycarbonyl)-5-nitrophenylboronic acid] | 205 to 207 | 0.44 | 0.43 | 0.39 | 80 ± 9 |  |  |  |  |  | 
9 | O=C(O)c1cccc(B(O)O)c1 [Compound F1203] |  |  |  |  |  |  |  |  |  |  | bacteriotoxicity at high dose ([9]; 512 μl/ml, MRSA-SU): not bacteriotoxic; MIC [9]: > 512 µg/mL; bacteriotoxicity at high dose ([10]; 512 μl/ml, MSSA): not bacteriotoxic; MIC [10]: > 512 µg/mL; bacteriotoxicity at high dose ([11]; 512 μl/ml, MRSA-ATCC): not bacteriotoxic; MIC [11]: > 512 µg/mL
